The values that follow are results of earlier work, collected in patent publication US20140271866A1, “TRANSDERMAL DRUG DELIVERY SYSTEM CONTAINING RIVASTIGMINE” (priority 2013, published 2014).

For the series the following is noted: in vivo.

In the case of `CCN(C)C(=O)Oc1cccc([C@H](C)N(C)C)c1` [Rivastigmine, rivastigmine], the half-life result is “about 1.5 hours”.
